Results: publication PMC8296573, “Synthesis and Biological Evaluation of Fingolimod Derivatives as Antibacterial Agents” (ACS Omega, 2021)
≈ marks a conversion by molar mass, not a printed value. Where two headings read alike, the source gives them in different places.

Columns and labels:
S. aureus ATCC 25923 [1] = assay: Antibacterial activity, pre-exposure (planktonic cells and biofilm formation); format: cell-based, Staphylococcus aureus; conditions: for MIC / inhibition at 5 µM / inhibition at 10 µM / inhibition at 15 µM / inhibition at 25 µM: Staphylococcus aureus, ATCC25923; for inhibition at 5 µM / inhibition at 10 µM / inhibition at 15 µM / inhibition at 25 µM / Average inhibition %, biofilms viability / Average inhibition %, planktonic cells viability: pre-exposure, ± SD
Experimental: (§1) The antimicrobial activity was assessed in a similar way for the initial screening and the dose–response evaluation against different bacterial strains. With the exception of the post-exposure experiment, the compounds were added to the wells along with the bacteria to test the ability of compounds to prevent bacterial growth and biofilm formation (pre-exposure). The compounds were diluted in DMSO and plated directly in 96-well plates before adding the bacterial culture, and plates were incubated for 18 h under aerobic conditions at 37 °C with shaking (220 rpm). The antibacterial activity of the compounds was assessed on planktonic cells and biofilms separately using two different measurements for each: optical density (turbidity) and resazurin reduction (viability) on planktonic cells and resazurin followed by a crystal violet staining assay (total biomass) on biofilms, as described in the following sections.
(§2) The resazurin staining was performed according to the protocol previously optimized with a few modifications.[46] Briefly, the planktonic solution was first transferred into a new 96-well plate and the OD of the planktonic solution was measured using a Varioskan LUX Multimode microplate reader (Thermo Scientific, Vantaa, Finland). Then, 10 μL of a 400 μM resazurin (R7017, Sigma-Aldrich, St. Louis, MO) diluted in phosphate-buffered saline (PBS) (Thermo Fisher Scientific, MA) was added to the wells (for a final resazurin concentration of 20 μM). The plate was incubated in the dark with shaking (220 rpm) for about 3–10 min at room temperature with S. aureus and A. baumannii (until the bacteria controls turned pink) or for 20 min at 37 °C with P. aeruginosa. Fluorescence was measured at λex = 560 nm and λem = 590 nm using the top optics of the Varioskan LUX Multimode microplate reader. The planktonic plate was then discarded. The original challenge plate containing the biofilms was washed once with PBS, and 200 μL of a 20 μM resazurin solution was added to the wells. The plate was incubated in the dark at 37 °C with shaking (220 rpm) for 30 min with S. aureus, 60 min with A. baumannii, and 90 min with P. aeruginosa. Fluorescence was measured as described for the planktonic solution. The biofilms were next treated with crystal violet staining.
(§3) After removing the resazurin solution from the plate, biofilms were fixed with ethanol 100% for 15 min at room temperature. Ethanol was then removed, and the biofilms were left to air-dry completely at RT. Crystal violet, diluted to 1:100 in deionized water from the 2.3% commercial solution (HT90132, Sigma-Aldrich, St. Louis, MO), was added to the wells and, after a 5 min incubation with the dye, the biofilms were washed twice with deionized water and left to air-dry for about 10 min. The dye was solubilized in ethanol 100% for 1 h, and absorbance was measured at 595 nm using a Multiskan Sky microplate spectrophotometer (Thermo Scientific, Vantaa, Finland).

S. aureus ATCC 25923 [2] = assay: Antibacterial activity, post-exposure on preformed 18-h-old biofilms; format: cell-based, Staphylococcus aureus; conditions: ± SD; for inhibition at 25 µM / inhibition at 50 µM / inhibition at 100 µM / inhibition at 200 µM: Staphylococcus aureus; for inhibition at 25 µM: ATCC25923, 25 µM; for inhibition at 50 µM: ATCC25923, 50 µM; for inhibition at 100 µM: ATCC25923, 100 µM; for inhibition at 200 µM: ATCC25923, 200 µM
Experimental: For the post-exposure experiment, bacteria were grown with no compounds in the same conditions for 18 h, after which the media was changed, and compounds were added on the preformed biofilms. The plates were then incubated in the same conditions for an additional 24 h before proceeding to the staining assays.
as §2, §3

A. baumannii NCTC 13423 = assay: Antibacterial activity, pre-exposure; format: cell-based, Acinetobacter baumannii; conditions: for Average inhibition %, biofilms viability / Average inhibition %, planktonic cells viability / inhibition at 10 µM / inhibition at 15 µM / inhibition at 25 µM / inhibition at 50 µM: A. baumannii NCTC 13423, pre-exposure, ± SD; for inhibition at 10 µM / inhibition at 15 µM / inhibition at 25 µM / inhibition at 50 µM / MIC: Acinetobacter baumannii, NCTC13423
Experimental: as §1, §2, §3

P. aeruginosa ATCC 9027 = assay: Antibacterial activity, pre-exposure; format: cell-based, Pseudomonas aeruginosa; conditions: for Average inhibition %, biofilms viability / Average inhibition %, planktonic cells viability / inhibition at 50 µM / inhibition at 100 µM / inhibition at 150 µM / inhibition at 200 µM: P. aeruginosa ATCC 9027, pre-exposure, ± SD; for MIC / inhibition at 50 µM / inhibition at 100 µM / inhibition at 150 µM / inhibition at 200 µM: Pseudomonas aeruginosa; for inhibition at 50 µM / inhibition at 100 µM / inhibition at 150 µM / inhibition at 200 µM: ATCC9027
Experimental: as §1, §2, §3

[3] = 10 µM, read-out: Average inhibition %, biofilms biomass
[4] = 10 µM, read-out: Average inhibition %, planktonic cells turbidity
[5] = 15 µM, read-out: Average inhibition %, biofilms biomass
[6] = 15 µM, read-out: Average inhibition %, planktonic cells turbidity
[7] = 25 µM, read-out: Average inhibition %, biofilms biomass
[8] = 25 µM, read-out: Average inhibition %, planktonic cells turbidity
[9] = read-out: Average inhibition %, biofilms biomass
[10] = read-out: Average inhibition %, planktonic cells turbidity
[11] = 50 µM, read-out: Average inhibition %, biofilms biomass
[12] = 50 µM, read-out: Average inhibition %, planktonic cells turbidity

CCCCCCCCc1cccc(CCC(N)(CO)CO)c1 [Compound 43, 2-Amino-2-(3-octylphenethyl)propane-1,3-diol]
MIC (S. aureus ATCC 25923 [1]; lowest concentration with no visible growth (>90% inhibition of turbidity and viability of planktonic cells), 18 h, read-out: MIC S. aureus ATCC 25923): 15 to 25 µM (≈ 4.61 to 7.69 µg/mL) | inhibition at 5 µM (S. aureus ATCC 25923 [1]; 5 µM, read-out: Average inhibition %, biofilms biomass): 33.6 ± 16% | inhibition at 5 µM (S. aureus ATCC 25923 [1]; 5 µM, read-out: Average inhibition %, planktonic cells turbidity): 25.6 ± 36.8% | inhibition at 10 µM (S. aureus ATCC 25923 [1]; [3]): 29.2 ± 14.5% | inhibition at 10 µM (S. aureus ATCC 25923 [1]; [4]): 36.2 ± 26.1% | inhibition at 15 µM (S. aureus ATCC 25923 [1]; [5]): 66.4 ± 27.2% | inhibition at 15 µM (S. aureus ATCC 25923 [1]; [6]): 61.4 ± 37.8% | inhibition at 25 µM (S. aureus ATCC 25923 [1]; [7]): 92.2 ± 6.9% | inhibition at 25 µM (S. aureus ATCC 25923 [1]; [8]): 98.9 ± 0.6% | MIC (S. aureus ATCC 25923 [1]; read-out: MIC (S. aureus)): 15 to 25 µM (≈ 4.61 to 7.69 µg/mL) | Average inhibition %, biofilms viability (S. aureus ATCC 25923 [1]; 5 µM): 17.4 ± 8.1% | Average inhibition %, planktonic cells viability (S. aureus ATCC 25923 [1]; 5 µM): 12.3 ± 21.4% | Average inhibition %, biofilms viability (S. aureus ATCC 25923 [1]; 10 µM): 29.1 ± 5.4% | Average inhibition %, planktonic cells viability (S. aureus ATCC 25923 [1]; 10 µM): 14.8 ± 15.3% | Average inhibition %, biofilms viability (S. aureus ATCC 25923 [1]; 15 µM): 52.5 ± 43.2% | Average inhibition %, planktonic cells viability (S. aureus ATCC 25923 [1]; 15 µM): 36.1 ± 55.2% | Average inhibition %, biofilms viability (S. aureus ATCC 25923 [1]; 25 µM): 99.7 ± 0% | Average inhibition %, planktonic cells viability (S. aureus ATCC 25923 [1]; 25 µM): 99.9 ± 0.2% | Average inhibition %, biofilms viability (S. aureus ATCC 25923 [2]; 25 µM): 14.4 ± 14% | Average inhibition %, planktonic cells viability (S. aureus ATCC 25923 [2]; 25 µM): 0 ± 0% | Average inhibition %, biofilms viability (S. aureus ATCC 25923 [2]; 50 µM): 23.1 ± 5.1% | Average inhibition %, planktonic cells viability (S. aureus ATCC 25923 [2]; 50 µM): 12.8 ± 18.3% | Average inhibition %, biofilms viability (S. aureus ATCC 25923 [2]; 100 µM): 35.4 ± 15.6% | Average inhibition %, planktonic cells viability (S. aureus ATCC 25923 [2]; 100 µM): 61.4 ± 27.6% | Average inhibition %, biofilms viability (S. aureus ATCC 25923 [2]; 200 µM): 75.7 ± 18.5% | Average inhibition %, planktonic cells viability (S. aureus ATCC 25923 [2]; 200 µM): 98 ± 3.3% | inhibition at 25 µM (S. aureus ATCC 25923 [2]; [9]): 38.4 ± 9.2% | inhibition at 25 µM (S. aureus ATCC 25923 [2]; [10]): 6.1 ± 8% | inhibition at 50 µM (S. aureus ATCC 25923 [2]; [9]): 50.1 ± 4.6% | inhibition at 50 µM (S. aureus ATCC 25923 [2]; [10]): 33.5 ± 18.7% | inhibition at 100 µM (S. aureus ATCC 25923 [2]; [9]): 64.7 ± 9.1% | inhibition at 100 µM (S. aureus ATCC 25923 [2]; [10]): 48.9 ± 21.5% | inhibition at 200 µM (S. aureus ATCC 25923 [2]; [9]): 79.9 ± 12% | inhibition at 200 µM (S. aureus ATCC 25923 [2]; [10]): 79.1 ± 6.3% | Average inhibition %, biofilms viability (A. baumannii NCTC 13423; 10 µM): 0.2 ± 0.4% | Average inhibition %, planktonic cells viability (A. baumannii NCTC 13423; 10 µM): 5.5 ± 0.6% | Average inhibition %, biofilms viability (A. baumannii NCTC 13423; 15 µM): 99.2 ± 1.1% | Average inhibition %, planktonic cells viability (A. baumannii NCTC 13423; 15 µM): 99.8 ± 0.1% | Average inhibition %, biofilms viability (A. baumannii NCTC 13423; 25 µM): 100 ± 1.1% | Average inhibition %, planktonic cells viability (A. baumannii NCTC 13423; 25 µM): 99.8 ± 0.2% | Average inhibition %, biofilms viability (A. baumannii NCTC 13423; 50 µM): 98.7 ± 2.5% | Average inhibition %, planktonic cells viability (A. baumannii NCTC 13423; 50 µM): 99.8 ± 0.1% | inhibition at 10 µM (A. baumannii NCTC 13423; [3]): 0.6 ± 1% | inhibition at 10 µM (A. baumannii NCTC 13423; [4]): 0% | inhibition at 15 µM (A. baumannii NCTC 13423; [5]): 76.9 ± 3.5% | inhibition at 15 µM (A. baumannii NCTC 13423; [6]): 99.1 ± 1.1% | inhibition at 25 µM (A. baumannii NCTC 13423; [7]): 81.7 ± 1% | inhibition at 25 µM (A. baumannii NCTC 13423; [8]): 99.1 ± 1% | inhibition at 50 µM (A. baumannii NCTC 13423; [11]): 79 ± 3.8% | inhibition at 50 µM (A. baumannii NCTC 13423; [12]): 98.3 ± 0.9% | MIC (A. baumannii NCTC 13423; pre-exposure, Inactive = no activity up to 50 μM, > = some inhibition but no MIC reached, read-out: MIC A. baumannii NCTC 13423): 15 µM (≈ 4.61 µg/mL) | MIC (A. baumannii NCTC 13423; supplementary molecular formula strings sheet, read-out: MIC (A. baumannii)): 15 µM (≈ 4.61 µg/mL) | Average inhibition %, biofilms viability (P. aeruginosa ATCC 9027; 50 µM): 53.1 ± 41.1% | Average inhibition %, planktonic cells viability (P. aeruginosa ATCC 9027; 50 µM): 98.1 ± 0.5% | Average inhibition %, biofilms viability (P. aeruginosa ATCC 9027; 100 µM): 99.2 ± 2% | Average inhibition %, planktonic cells viability (P. aeruginosa ATCC 9027; 100 µM): 99 ± 1.3% | Average inhibition %, biofilms viability (P. aeruginosa ATCC 9027; 150 µM): 99.9 ± 0.9% | Average inhibition %, planktonic cells viability (P. aeruginosa ATCC 9027; 150 µM): 99.4 ± 0.7% | Average inhibition %, biofilms viability (P. aeruginosa ATCC 9027; 200 µM): 100.3 ± 0.5% | Average inhibition %, planktonic cells viability (P. aeruginosa ATCC 9027; 200 µM): 99.9 ± 0.1% | MIC (P. aeruginosa ATCC 9027; ATCC9027, pre-exposure, Inactive = no activity up to 200 μM, > = some inhibition but no MIC reached, read-out: MIC P. aeruginosa ATCC 9027): 50 to 100 µM (≈ 15.4 to 30.7 µg/mL) | MIC (P. aeruginosa ATCC 9027; ATCC9027, supplementary molecular formula strings sheet, read-out: MIC (P. aeruginosa)): 50 to 100 µM (≈ 15.4 to 30.7 µg/mL) | inhibition at 50 µM (P. aeruginosa ATCC 9027; [11]): 52.1 ± 19.8% | inhibition at 50 µM (P. aeruginosa ATCC 9027; [12]): 94.5 ± 0.8% | inhibition at 100 µM (P. aeruginosa ATCC 9027; 100 µM, read-out: Average inhibition %, biofilms biomass): 82.4 ± 25.2% | inhibition at 100 µM (P. aeruginosa ATCC 9027; 100 µM, read-out: Average inhibition %, planktonic cells turbidity): 97.2 ± 2.5% | inhibition at 150 µM (P. aeruginosa ATCC 9027; 150 µM, read-out: Average inhibition %, biofilms biomass): 89.4 ± 13.3% | inhibition at 150 µM (P. aeruginosa ATCC 9027; 150 µM, read-out: Average inhibition %, planktonic cells turbidity): 96.9 ± 1.2% | inhibition at 200 µM (P. aeruginosa ATCC 9027; 200 µM, read-out: Average inhibition %, biofilms biomass): 94.3 ± 1.4% | inhibition at 200 µM (P. aeruginosa ATCC 9027; 200 µM, read-out: Average inhibition %, planktonic cells turbidity): 97.5 ± 0.3%
